{"source": "ChEMBL document CHEMBL4665751", "about": "“Discovery of Clinical Candidate (5-(3-(4-Chlorophenoxy)prop-1-yn-1-yl)-3-hydroxypicolinoyl)glycine, an Orally Bioavailable Prolyl Hydroxylase Inhibitor for the Treatment of Anemia” (J Med Chem, 2020)", "key": {"[1]": {"assay": "Genotoxicity in Salmonella typhimurium TA100 at 62.5 to 1000 ug incubated for 48 to 50 hrs in presence of S9 fraction by Ames test", "assay_type": "toxicity, subcellular, Salmonella enterica subsp. enterica serovar Typhimurium", "details": "dose 62.5-1000 µg, time 48-50 hrs"}, "[2]": {"assay": "Genotoxicity in Salmonella typhimurium TA100 at 62.5 to 1000 ug incubated for 48 to 50 hrs in absence of S9 fraction by Ames test", "assay_type": "toxicity, Salmonella enterica subsp. enterica serovar Typhimurium", "details": "in vivo; dose 62.5-1000 µg, time 48-50 hrs"}, "[3]": {"assay": "Hepatotoxicity in male Sprague-Dawley rat assessed as change in globulin level at 15 to 200 mg/kg, po administered every alternate days for 2 weeks measured on day 14", "assay_type": "toxicity, organism-based", "details": "in vivo, 336 h, dose 15-200 mg/kg, time 14 day"}, "Mus musculus [4]": {"tested_on": "Mus musculus", "assay": "Antianemic activity in cisplatin-induced C57BL/6 mouse anemia model assessed as improvement in anemia at 25 mg/kg, po administered every other day for 1 month", "assay_type": "functional", "details": "time 1 months, 730 h"}, "Mus musculus [5]": {"tested_on": "Mus musculus", "assay": "Antianemic activity in cisplatin-induced C57BL/6 mouse anemia model assessed as improvement in anemia at 10 mg/kg, po administered every other day for 1 month", "assay_type": "functional", "details": "time 1 months, 730 h"}, "[6]": {"assay": "Hepatotoxicity in male Sprague-Dawley rat assessed as change in alanine aminotransferase level in blood at 15 to 200 mg/kg, po administered every alternate days for 2 weeks measured on day 14", "assay_type": "toxicity, organism-based", "details": "in vivo, 336 h, dose 15-200 mg/kg, time 14 day"}, "[7]": {"assay": "Hepatotoxicity in male Sprague-Dawley rat assessed as change in aspartate aminotransferase level in blood at 200 mg/kg, po administered every alternate days for 2 weeks measured on day 14", "assay_type": "toxicity, organism-based", "details": "in vivo, 336 h, time 14 day"}, "[8]": {"assay": "Hepatotoxicity in male Sprague-Dawley rat assessed as change in albumin level at 15 to 200 mg/kg, po administered every alternate days for 2 weeks measured on day 14", "assay_type": "toxicity, organism-based", "details": "in vivo, 336 h, dose 15-200 mg/kg, time 14 day"}, "[9]": {"assay": "Acute toxicity in male Sprague-Dawley rat assessed as increase in weight of spleen to body weight at 15 to 200 mg/kg, po administered every alternate days for 2 weeks measured on day 14", "assay_type": "organism-based", "details": "in vivo, 336 h, dose 15-200 mg/kg, time 14 day"}, "[10]": {"assay": "Acute toxicity in female Sprague-Dawley rat assessed as change in ratio of ovary to body weight at 15 to 200 mg/kg, po administered every alternate days for 2 weeks measured on day 14", "assay_type": "organism-based", "details": "in vivo, 336 h, dose 15-200 mg/kg, time 14 day"}, "[11]": {"assay": "Acute toxicity in Sprague-Dawley rat assessed as change in ratio of kidney to body weight at 15 to 200 mg/kg, po administered every alternate days for 2 weeks measured on day 14", "assay_type": "organism-based", "details": "in vivo, 336 h, dose 15-200 mg/kg, time 14 day"}, "[12]": {"assay": "Acute toxicity in Sprague-Dawley rat assessed as change in ratio of heart to body weight at 15 to 200 mg/kg, po administered every alternate days for 2 weeks measured on day 14", "assay_type": "organism-based", "details": "in vivo, 336 h, dose 15-200 mg/kg, time 14 day"}, "[13]": {"assay": "Acute toxicity in Sprague-Dawley rat assessed as change in ratio of brain to body weight at 15 to 200 mg/kg, po administered every alternate days for 2 weeks measured on day 14", "assay_type": "organism-based", "details": "in vivo, 336 h, dose 15-200 mg/kg, time 14 day"}, "[14]": {"assay": "Acute toxicity in Sprague-Dawley rat assessed as change in ratio of adrenal gland to body weight at 15 to 200 mg/kg, po administered every alternate days for 2 weeks measured on day 14", "assay_type": "organism-based", "details": "in vivo, 336 h, dose 15-200 mg/kg, time 14 day"}, "[15]": {"assay": "Half-life in rat liver microsome at 1 uM preincubated for 5 mins followed by NADPH addition measured up to 120 mins by LC-MS/MS analysis", "assay_type": "ADME", "details": "liver microsomes, time <=125 min"}, "[16]": {"assay": "Half-life in mouse liver microsome at 1 uM preincubated for 5 mins followed by NADPH addition measured up to 120 mins by LC-MS/MS analysis", "assay_type": "ADME", "details": "liver microsomes, time <=125 min"}, "[17]": {"assay": "Intrinsic clearance in human liver microsome at 1 uM preincubated for 5 mins followed by NADPH addition measured up to 120 mins by LC-MS/MS analysis", "assay_type": "ADME", "details": "microsomes, 2 h, time <=125 min"}, "[18]": {"assay": "Intrinsic clearance in monkey liver microsome at 1 uM preincubated for 5 mins followed by NADPH addition measured up to 120 mins by LC-MS/MS analysis", "assay_type": "ADME, Macaca mulatta", "details": "rhesus monkey, microsomes, 2 h, time <=125 min"}, "[19]": {"assay": "Intrinsic clearance in dog liver microsome at 1 uM preincubated for 5 mins followed by NADPH addition measured up to 120 mins by LC-MS/MS analysis", "assay_type": "ADME, Canis lupus familiaris", "details": "microsomes, 2 h, time <=125 min"}, "[20]": {"assay": "Intrinsic clearance in mouse liver microsome at 1 uM preincubated for 5 mins followed by NADPH addition measured up to 120 mins by LC-MS/MS analysis", "assay_type": "ADME", "details": "microsomes, 2 h, time <=125 min"}, "[21]": {"assay": "MRT (0 to infinity) in Beagle dog at 0.5 mg/kg, iv by LC-MS/MS analysis", "assay_type": "ADME, organism-based, Canis lupus familiaris", "details": "in vivo"}, "[22]": {"assay": "Half-life in Beagle dog at 0.5 mg/kg, iv by LC-MS/MS analysis", "assay_type": "ADME, organism-based, Canis lupus familiaris", "details": "in vivo"}, "[23]": {"assay": "AUC (0 to infinity) in Beagle dog at 0.5 mg/kg, iv by LC-MS/MS analysis", "assay_type": "ADME, organism-based, Canis lupus familiaris", "parameters": "time infinity, route intravenous, dose 0.5 mg/kg", "details": "in vivo"}, "[24]": {"assay": "Apparent volume of distribution in Beagle dog at 2 mg/kg, ig by LC-MS/MS analysis", "assay_type": "ADME, organism-based, Canis lupus familiaris", "details": "in vivo, po"}, "[25]": {"assay": "AUC (0 to infinity) in Beagle dog at 2 mg/kg, ig by LC-MS/MS analysis", "assay_type": "ADME, organism-based, Canis lupus familiaris", "parameters": "route […], time infinity, dose 2 mg/kg", "details": "in vivo, po"}, "[26]": {"assay": "Tmax in Beagle dog at 2 mg/kg, ig by LC-MS/MS analysis", "assay_type": "ADME, organism-based, Canis lupus familiaris", "details": "in vivo, po"}, "[27]": {"assay": "MRT (0 to infinity) in Sprague-Dawley rat at 1 mg/kg, iv by LC-MS/MS analysis", "assay_type": "ADME, organism-based", "details": "in vivo"}, "[28]": {"assay": "Apparent volume of distribution in Sprague-Dawley rat at 1 mg/kg, iv by LC-MS/MS analysis", "assay_type": "ADME, organism-based", "details": "in vivo, read-out: Vz"}, "[29]": {"assay": "MRT (0 to infinity) in Sprague-Dawley rat at 2 mg/kg, ig by LC-MS/MS analysis", "assay_type": "ADME, organism-based", "details": "in vivo, po"}, "[30]": {"assay": "AUC (0 to infinity) in Sprague-Dawley rat at 2 mg/kg, ig by LC-MS/MS analysis", "assay_type": "ADME, organism-based", "parameters": "time infinity, route […], dose 2 mg/kg", "details": "in vivo, po"}, "Mus musculus [31]": {"tested_on": "Mus musculus", "assay": "In vivo inhibition of PHD2 in C57BL/6 mouse assessed as upregulation of EPO plasma level by measuring EPO level at 15 mg/kg, po measured after 4 hrs by ELISA", "assay_type": "functional, organism-based"}, "Egl nine homolog 1": {"target": "Egl nine homolog 1 (Homo sapiens, UniProt Q9GZT9)", "sequence (Q9GZT9 2-426 limits assumed)": "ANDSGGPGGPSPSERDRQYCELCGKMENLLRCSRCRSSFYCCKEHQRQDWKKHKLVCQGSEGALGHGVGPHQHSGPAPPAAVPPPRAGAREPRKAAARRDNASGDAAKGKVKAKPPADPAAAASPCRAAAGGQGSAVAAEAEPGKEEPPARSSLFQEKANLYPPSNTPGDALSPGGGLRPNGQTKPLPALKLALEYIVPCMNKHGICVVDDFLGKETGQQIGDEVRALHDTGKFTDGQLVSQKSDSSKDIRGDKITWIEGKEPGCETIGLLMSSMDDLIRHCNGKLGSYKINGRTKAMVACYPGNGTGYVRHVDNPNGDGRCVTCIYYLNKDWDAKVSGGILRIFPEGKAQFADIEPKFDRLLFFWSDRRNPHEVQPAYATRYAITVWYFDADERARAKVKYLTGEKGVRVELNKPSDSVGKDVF", "assay": "Inhibition of PHD2 in human MCF7 cells assessed as upregulation of HIFalpha expression at 25 uM incubated for 24 hrs by firefly/renilla luciferase reporter gene assay relative to control", "assay_type": "cell-based"}, "MCF7": {"tested_on": "MCF7", "assay": "Cytotoxicity against human MCF7 cells assessed as reduction in cell viability at 10 to 100 uM incubated for 72 hrs by MTT assay", "assay_type": "cell-based", "details": "mcf7, 72 h, dose 10-100 µM"}, "Hep 3B2": {"tested_on": "Hep 3B2", "assay": "Cytotoxicity against human Hep3B cells assessed as reduction in cell viability at 10 to 100 uM incubated for 72 hrs by MTT assay", "assay_type": "cell-based", "details": "hep 3b2, 72 h, dose 10-100 µM"}, "L02": {"tested_on": "L02", "assay": "Cytotoxicity against human L02 cells assessed as reduction in cell viability at 10 to 100 uM incubated for 72 hrs by MTT assay", "assay_type": "cell-based", "details": "l02, 72 h, dose 10-100 µM"}, "Homo sapiens": {"species": "Homo sapiens", "assay": "Selectivity index, ratio of IC50 for PHD1 (unknown origin) by O-phenyl enediamine(OPD) based fluorescence assay to IC50 for PHD2 (unknown origin) by O-phenyl enediamine(OPD) based fluorescence assay"}}, "note": "Activity calls are given as the source filed them. The rule behind the calls is not given here.", "data": [{"smiles": "O=C(O)CNC(=O)c1ncc(C#CCOc2ccc(Cl)cc2)cc1O", "note": "[DDO-3055]", "values": [{"measurement": "Activity", "setting": "[1]", "result": "Non-Toxic"}, {"measurement": "Activity", "setting": "[2]", "result": "Non-Toxic"}, {"measurement": "Activity", "setting": "[3]", "result": "Non-Toxic"}, {"measurement": "Activity", "setting": "Mus musculus [4]", "result": 104.5, "unit": "%"}, {"measurement": "Activity", "setting": "Mus musculus [5]", "result": 83.3, "unit": "%"}, {"measurement": "Activity", "setting": "[6]", "result": "Non-Toxic"}, {"measurement": "Activity", "setting": "[7]", "result": "Toxic"}, {"measurement": "Activity", "setting": "[8]", "result": "Non-Toxic"}, {"measurement": "Activity", "setting": "[9]", "result": "Toxic"}, {"measurement": "Activity", "setting": "[10]", "result": "Non-Toxic"}, {"measurement": "Activity", "setting": "[11]", "result": "Non-Toxic"}, {"measurement": "Activity", "setting": "[12]", "result": "Non-Toxic"}, {"measurement": "Activity", "setting": "[13]", "result": "Non-Toxic"}, {"measurement": "Activity", "setting": "[14]", "result": "Non-Toxic"}, {"measurement": "half-life at 1 µM", "setting": "[15]", "result": "> 1.12", "unit": "h"}, {"measurement": "half-life at 1 µM", "setting": "[16]", "result": "> 2.32", "unit": "h"}, {"measurement": "CLH", "setting": "[17]", "result": "< 14.4", "unit": "mL/day/kg"}, {"measurement": "CLH", "setting": "[18]", "result": "< 18.7", "unit": "mL/day/kg"}, {"measurement": "CLH", "setting": "[19]", "result": "< 14.4", "unit": "mL/day/kg"}, {"measurement": "CLH", "setting": "[20]", "result": "< 14.4", "unit": "mL/day/kg"}, {"measurement": "MRT inf", "setting": "[21]", "result": 2.27, "unit": "h"}, {"measurement": "half-life", "setting": "[22]", "result": 2.91, "unit": "h"}, {"measurement": "AUC(0-inf)", "setting": "[23]", "result": 636, "unit": "ng·h/mL"}, {"measurement": "Vz", "setting": "[24]", "result": 8.417, "unit": "L/kg"}, {"measurement": "AUC(0-inf)", "setting": "[25]", "result": 1370, "unit": "ng·h/mL"}, {"measurement": "Tmax", "setting": "[26]", "result": 0.67, "unit": "h"}, {"measurement": "MRT inf", "setting": "[27]", "result": 3.44, "unit": "h"}, {"measurement": "Vd", "setting": "[28]", "result": 2.52, "unit": "L/kg"}, {"measurement": "MRT inf", "setting": "[29]", "result": 9.43, "unit": "h"}, {"measurement": "AUC(0-inf)", "setting": "[30]", "result": 5420, "unit": "ng·h/mL"}, {"measurement": "inhibition", "setting": "Mus musculus [31]", "result": "Active"}, {"measurement": "fold change (FC)", "setting": "Egl nine homolog 1", "result": 4}, {"measurement": "Activity", "setting": "MCF7", "result": "Non-Toxic"}, {"measurement": "Activity", "setting": "Hep 3B2", "result": "Non-Toxic"}, {"measurement": "Activity", "setting": "L02", "result": "Non-Toxic"}, {"measurement": "Ratio IC50", "setting": "Homo sapiens", "result": 29}]}]}
